Experimental data as given in patent US7960173B2, “Cardiac conduction system cells and uses thereof” (Board of Supervisors of Louisiana State University and …, priority 2004, dated 2011).

System: cGATA6-minK co-positive cells
Assay: Whole-cell patch-clamp of hyperpolarization-activated (If) current before and after cesium chloride
Assay type: cell-based, murine
Conditions: 10 mM cesium chloride, n=16 cells, FIG. 3(E),(F)
Method: On the day prior to recording, EBs were dispersed and plated onto glass coverslips coated with 0.1% gelatin. On the following day, coverslips were transferred to a recording chamber mounted on an inverted microscope (Nikon Diaphot-TMD) and superfused with extracellular recording solution. All experiments were conducted at room temperature (22-25° C.). Whole-cell voltage-clamp and current-clamp experiments were carried out using a standard Giga-seal patch-clamp method (Hamill O P et al. Pflugers Arch 391 (1981) 85). Recording electrodes were fabricated from 1.5 mm thin-walled borosilicate glass tubes (#7052. Garner Glass, Claremont, Calif.), using a Flaming-Brown microelectrode puller (P-97, Sutter Instruments, Novato, Calif.) and heat-polished before use. […] Recordings were performed using an Axoclamp 2B patch-clamp amplifier (Axon Instruments, Union City, Calif.). Data were filtered at 2 kHz, and data were acquired using Clampex 8 software (Axon Instruments). […]
In FIG. 3 (B) cGATA6-minK cells with morphologies similar to contracting atrial myocytes display atrial-like action potential waveforms (FIG. 3D). […] (F) Current-voltage relationship for hyperpolarization-activated currents measured in cGATA6-minK co-positive cells before (triangles) and after (squares) treatment with 10 mM cesium chloride. […]

[Cl-].[Cs+] [cesium chloride]
sensitivity of hyperpolarization-activated cation current (If) to cesium: cesium-sensitive
